Key:
[1] = test system: human breast cancer cell line (MDA-MB-231); test: MTT cytotoxic assay, MDA-MB-231; type: cell-based; settings: MDA-MB-231, MTT, 48 h exposure, read-out: IC50 MDA-MB-231
Method: The in vitro antiproliferative activity of DAA derivatives (1–5, 6a–k, 7a–k) were evaluated by MTT assay against human hepatocarcinoma cell line (SMMC-7721), human breast cancer cell line (MDA-MB-231), human cervical carcinoma cell line (HeLa), mouse colon cancer cell line (CT-26) and human normal hepatocyte cell line (QSG-7701). Nocodazole was co-assayed as the positive control and DMEM culture medium containing 0.1% DMSO was used as negative control. The results of the tested compounds expressed as IC50 values (concentration required to inhibit tumor cell proliferation by 50%) were presented in Table 1.
The human hepatocarcinoma cell line (SMMC-7721), human breast cancer cell line (MDA-MB-231), human cervical carcinoma cell line (HeLa), mouse colon cancer cell line (CT-26) and human normal hepatocyte cells (QSG-7701) used in this study were all obtained from Keygene Biotech., China. These cell lines were maintained in DMEM medium supplemented with 10% heat-inactivated fetal bovine serum in a humidified atmosphere of 5% CO2 at 37 °C.
The in vitro cytotoxic activities of the benzimidazole derivatives of dehydroabietic acid were evaluated against tested cell lines via the MTT colorimetric method. Briefly, different tumor cells were grown in DMEM medium supplemented with 10% fetal bovine serum, penicillin (100 U mL^−1), and streptomycin (50 μg mL^−1). Cells were harvested at log phase of growth and seeded in 96-well plates (100 μL per well at a density of 2 × 10^5 cells mL^−1). After 24 h incubation at 37 °C and 5% CO2 to allow cell attachment, cultures were exposed to various concentrations of the isolated compounds for 48 h. Finally, MTT solution (2.5 mg mL^−1 in PBS) was added (40 μL per well). Plates were further incubated for 4 h at 37 °C, and the formazan crystals formed were dissolved by adding 150 μL per well of DMSO. Absorption at 570 nm was measured with an ELISA plate reader. The results were expressed as IC50 values with standard deviations, which was defined as the concentration at which 50% survival of cells was discerned. Nocodazole was co-assayed as positive control.

Porcine brain tubulin = biological target: T1, Porcine brain tubulin (Sus scrofa, UniProt P02550+P02554); test: In vitro tubulin polymerization inhibition assay (OD340); type: biochemical; settings: 37 °C, 1 h, versus blank control
T1 construct: purchased Cytoskeleton, Inc. BK004P; host or cells: porcine brain tissue
T1 sequence (P02554 whole entry): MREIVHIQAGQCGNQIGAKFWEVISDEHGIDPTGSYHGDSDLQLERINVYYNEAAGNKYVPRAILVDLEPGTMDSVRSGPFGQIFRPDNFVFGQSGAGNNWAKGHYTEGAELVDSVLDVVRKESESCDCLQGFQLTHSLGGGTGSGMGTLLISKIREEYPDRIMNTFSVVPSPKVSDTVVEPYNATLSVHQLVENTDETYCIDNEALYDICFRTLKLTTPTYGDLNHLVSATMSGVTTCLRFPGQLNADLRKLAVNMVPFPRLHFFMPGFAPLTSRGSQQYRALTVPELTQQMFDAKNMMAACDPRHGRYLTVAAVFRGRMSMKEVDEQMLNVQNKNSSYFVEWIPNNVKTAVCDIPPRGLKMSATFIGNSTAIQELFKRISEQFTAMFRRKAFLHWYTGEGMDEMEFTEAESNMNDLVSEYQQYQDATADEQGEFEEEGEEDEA
T1 sequence (P02550 whole entry): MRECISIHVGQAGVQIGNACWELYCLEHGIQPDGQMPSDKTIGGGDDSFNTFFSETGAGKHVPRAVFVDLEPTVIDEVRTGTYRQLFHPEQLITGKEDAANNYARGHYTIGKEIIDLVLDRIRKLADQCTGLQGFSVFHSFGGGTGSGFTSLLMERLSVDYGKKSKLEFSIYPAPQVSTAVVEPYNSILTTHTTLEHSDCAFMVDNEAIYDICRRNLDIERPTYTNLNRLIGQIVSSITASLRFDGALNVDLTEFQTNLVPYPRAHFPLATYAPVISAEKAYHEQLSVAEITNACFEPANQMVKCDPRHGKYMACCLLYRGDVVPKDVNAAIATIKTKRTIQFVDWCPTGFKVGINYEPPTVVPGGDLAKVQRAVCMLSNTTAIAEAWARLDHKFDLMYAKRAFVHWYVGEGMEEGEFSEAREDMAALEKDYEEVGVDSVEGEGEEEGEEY
Method: The in vitro tubulin polymerization inhibition assay was carried out by using the Tubulin Polymerization Assay Kit (Cytoskeleton, Inc., USA) according to the protocol in the manual. Porcine brain tubulin was incubated with compound 6j at concentrations of 5 and 10 μM. The positive control colchicine and negative control taxol were co-assayed at the concentration of 10 μM, and G-PEM buffer was used as the blank control.
The tubulin polymerization assay was accomplished using a commercial assay kit (cat. #BK004P) purchased from Cytoskeleton, Inc. (Danvers, MA, USA). Tubulin isolated from porcine brain tissue was used in this tubulin polymerization assay kit. Tubulin polymerizations are followed by an increase in optical density at 340 nm (OD340) over a 60 min period at 37 °C due to the light scattered by microtubule polymer. At first, tubulin (4 mg) was disovled in 1 mL of G-PEM buffer containing 80 mM piperazine-N,N′-bis(2-ethanesulfonic acid) sequisodium salt (PIPES, pH 6.9), 2.0 mM MgCl2, 0.5 mM EGTA and 1 mM GTP to prepare tubulin solution. Subsequently, 10 μL of 10 × stock solutions of the tested compounds at different concentrations were added to a prewarmed 96-well plate and incubated at 37 °C for 2 min, then 90 μL of tubulin solution was also added into each well to initiate the reaction. The optical intensity (OD340) of each well was recorded every 60 s for 60 min (Cytation 3 Cell Imaging Multi-Mode Reader, BioTek Instruments, Inc., USA). Colchicine and taxol were co-assayed as the positive control and negative control, respectively. G-PEM buffer was used as the blank control.

SMMC-7721 cells [2] = test: Annexin V-FITC/PI dual staining assay (apoptosis); type: cell-based, human; settings: highest concentration 2.0 μM, 24 h; control 10.12%
Method: In order to investigate whether compound 6j could induce cell apoptosis, SMMC-7721 cells treated with different concentrations of compound 6j were subjected to Annexin V-FITC/propidium iodide (PI) dual staining followed by flow cytometry assay.
Apoptosis was discriminated with the Annexin V-FITC/PI dual staining assay. SMMC-7721 cells were seeded at 1 × 10^5 cells per well in 10% fetal calf serum (FBS)-DMEM into six-well plates and treated with or without compound 6j for 24 h. The cells were detached with 0.25% trypsin, washed twice with ice-cold PBS and then resuspended in 500 μL of 1× binding buffer (0.1 M Hepes/NaOH (pH 7.4), 1.4 M NaCl, 25 mM CaCl2). The solution was transferred into 5 mL culture tubes, and 5 μL of Annexin V-FITC (BD, Pharmingen) and 5 μL of PI were added to each tube. The cells were gently vortexed, and incubated for 30 min at 25 °C in the dark. The analysis was performed on a flow cytometry (Becton-Dickinson FACSCalibur, New York, USA).

SMMC-7721 cells [3] = test: Wound healing assay (cell migration); type: cell-based, human; settings: 0.2 and 0.5 μM, up to 48 h
Excerpt: Metastasis is a multistep process involving cancer cell motility and invasion which represents a key difficulty for cancer therapy. Thus, the inhibition of metastasis is vital for efficient cancer treatment. Microtubule plays an important role in cell motility and migration. As compound 6j inhibits tubulin polymerization, the capacity of migration inhibition was also investigated through wound healing assay.[45] In this assay, standard scratches (wounds) were made in confluent monolayers of SMMC-7721 cells and incubated with different concentrations (0, 0.1, 0.2 and 0.5 μM) of compound 6j. The migration of SMMC-7721 cells was recorded by microscopic observations at 0, 24 and 48 h.
SMMC-7721 cells (5 × 10^5 cells per well) were grown in a 12-well plate for 24 h. Scratches were made in confluent monolayers using 200 μL pipette tip. Then, wounds were washed twice with PBS to remove non-adherent cell debris. The media containing different concentrations (0, 0.1, 0.2 and 0.5 μM) of compound 6j were added to the corresponding wells. Cells which migrated across the wound area were photographed under the phase contrast microscope (Olympus 1X71 Inverted System Microscope, Olympus, Japan) after 24 and 48 h treatment.

effect on tubulin polymerization speed and final absorbance (OD340) (Porcine brain tubulin; 10 μM): stronger than colchicine
SMILES: COC(=O)[C@]1(C)CCC[C@]2(C)c3cc(Br)c4nc(-c5ccc6[nH]ccc6c5)[nH]c4c3CCC12 (some centres unmarked) [Compound 6j, Methyl 2′-(1H-indol-5-yl)-12-bromo-13,14-imidazolyl-deisopropyl-dehydroabietate]
IC50 [1]: 190 ± 40 nM
effect on tubulin polymerization speed and final absorbance (OD340) (Porcine brain tubulin; 5 and 10 μM): substantially decreased the polymerization speed and the final absorbance in a dose-dependent manner
percentage of early and late apoptotic cells (SMMC-7721 cells [2]): 80.08%
wound healing (cell migration) (SMMC-7721 cells [3]): healing was strongly suppressed

— paper PMC9080489, “Synthesis and biological evaluation of 2-aryl-benzimidazole derivatives of dehydroabietic acid as novel tubulin polymerization inhibitors” (RSC Advances, 2018)
